Data from ChEMBL document CHEMBL1127517 (J Med Chem, 1994).

Columns and labels:
Rattus norvegicus [1] = assay: Distribution of radio activity in tissues of unfasted male rats was measured at 60 min of time in blood after intravenous administration; assay type: ADME, organism-based; details: in vivo, 1 h
Rattus norvegicus [2] = assay: Distribution of radio activity in tissues of unfasted male rats was measured at 60 min of time in brain after intravenous administration; assay type: ADME, organism-based; details: in vivo, 1 h
Rattus norvegicus [3] = assay: Distribution of radio activity in tissues of unfasted male rats was measured at 60 min of time in heart after intravenous administration; assay type: ADME, organism-based; details: in vivo, 1 h
Rattus norvegicus [4] = assay: Distribution of radio activity in tissues of unfasted male rats was measured at 60 min of time in kidney after intravenous administration; assay type: ADME, organism-based; details: in vivo, 1 h
Rattus norvegicus [5] = assay: Distribution of radio activity in tissues of unfasted male rats was measured at 60 min of time in liver after intravenous administration; assay type: ADME, organism-based; details: in vivo, 1 h
Rattus norvegicus [6] = assay: Distribution of radio activity in tissues of unfasted male rats was measured at 60 min of time in lung after intravenous administration; assay type: ADME, organism-based; details: in vivo, 1 h
Rattus norvegicus [7] = assay: Distribution of radio activity in tissues of unfasted male rats was measured at 60 min of time in muscle after intravenous administration; assay type: ADME, organism-based, Muscle tissue; details: in vivo, 1 h
Rattus norvegicus [8] = assay: Distribution of radio activity in tissues of unfasted male rats was measured at 2 min of time in thyroid after intravenous administration; assay type: ADME, organism-based, Thyroid gland; details: in vivo
Rattus norvegicus [9] = assay: Distribution of radio activity in tissues of unfasted male rats was measured at 30 min of time in blood after intravenous administration; assay type: ADME, organism-based; details: in vivo, 0.5 h
Rattus norvegicus [10] = assay: Distribution of radio activity in tissues of unfasted male rats was measured at 30 min of time in brain after intravenous administration; assay type: ADME, organism-based; details: in vivo, 0.5 h
Rattus norvegicus [11] = assay: Distribution of radio activity in tissues of unfasted male rats was measured at 30 min of time in heart after intravenous administration; assay type: ADME, organism-based; details: in vivo, 0.5 h
Rattus norvegicus [12] = assay: Distribution of radio activity in tissues of unfasted male rats was measured at 60 min of time in skin after intravenous administration; assay type: ADME, organism-based; details: in vivo, 1 h
Rattus norvegicus [13] = assay: Distribution of radio activity in tissues of unfasted male rats was measured at 60 min of time in spleen after intravenous administration; assay type: ADME, organism-based; details: in vivo, 1 h
Rattus norvegicus [14] = assay: Distribution of radio activity in tissues of unfasted male rats was measured at 60 min of time in thyroid after intravenous administration; assay type: ADME, organism-based, Thyroid gland; details: in vivo, 1 h
Rattus norvegicus [15] = assay: Distribution of radio activity in tissues of unfasted male rats was measured as regional uptake at 120 min of time in cortex after intravenous administration; assay type: ADME, organism-based; details: in vivo, 2 h
Rattus norvegicus [16] = assay: Distribution of radio activity in tissues of unfasted male rats was measured as regional uptake at 120 min of time in hippocampus after intravenous administration; assay type: ADME, organism-based; details: in vivo, 2 h
Rattus norvegicus [17] = assay: Distribution of radio activity in tissues of unfasted male rats was measured as regional uptake at 120 min of time in striatum after intravenous administration; assay type: ADME, organism-based; details: in vivo, 2 h
Rattus norvegicus [18] = assay: Distribution of radio activity in tissues of unfasted male rats was measured as regional uptake at 2 min of time in ST/CB after intravenous administration; assay type: ADME, organism-based; details: in vivo
Rattus norvegicus [19] = assay: Distribution of radio activity in tissues of unfasted male rats was measured as regional uptake at 2 min of time in cerebellum after intravenous administration; assay type: ADME, organism-based; details: in vivo
Rattus norvegicus [20] = assay: Distribution of radio activity in tissues of unfasted male rats was measured as regional uptake at 2 min of time in cortex after intravenous administration; assay type: ADME, organism-based; details: in vivo
Rattus norvegicus [21] = assay: Distribution of radio activity in tissues of unfasted male rats was measured as regional uptake at 2 min of time in hippocampus after intravenous administration; assay type: ADME, organism-based; details: in vivo
Rattus norvegicus [22] = assay: Distribution of radio activity in tissues of unfasted male rats was measured as regional uptake at 2 min of time in striatum after intravenous administration; assay type: ADME, organism-based; details: in vivo
Rattus norvegicus [23] = assay: Distribution of radio activity in tissues of unfasted male rats was measured as regional uptake at 30 min of time in ST/CB after intravenous administration; assay type: ADME, organism-based; details: in vivo, 0.5 h
Rattus norvegicus [24] = assay: Distribution of radio activity in tissues of unfasted male rats was measured as regional uptake at 30 min of time in cerebellum after intravenous administration; assay type: ADME, organism-based; details: in vivo, 0.5 h
Rattus norvegicus [25] = assay: Distribution of radio activity in tissues of unfasted male rats was measured as regional uptake at 30 min of time in cortex after intravenous administration; assay type: ADME, organism-based; details: in vivo, 0.5 h
Rattus norvegicus [26] = assay: Distribution of radio activity in tissues of unfasted male rats was measured as regional uptake at 30 min of time in hippocampus after intravenous administration; assay type: ADME, organism-based; details: in vivo, 0.5 h
Rattus norvegicus [27] = assay: Distribution of radio activity in tissues of unfasted male rats was measured as regional uptake at 30 min of time in striatum after intravenous administration; assay type: ADME, organism-based; details: in vivo, 0.5 h
Rattus norvegicus [28] = assay: Distribution of radio activity in tissues of unfasted male rats was measured as regional uptake at 60 min of time in ST/CB after intravenous administration; assay type: ADME, organism-based; details: in vivo, 1 h
Rattus norvegicus [29] = assay: Distribution of radio activity in tissues of unfasted male rats was measured as regional uptake at 60 min of time in cerebellum after intravenous administration; assay type: ADME, organism-based; details: in vivo, 1 h
Rattus norvegicus [30] = assay: Distribution of radio activity in tissues of unfasted male rats was measured at 2 min of time in spleen after intravenous administration; assay type: ADME, organism-based; details: in vivo
Rattus norvegicus [31] = assay: Distribution of radio activity in tissues of unfasted male rats was measured at 2 min of time in liver after intravenous administration; assay type: ADME, organism-based; details: in vivo

`COC(=O)C1C(c2ccc(Cl)cc2)CC2CCC1N2C/C=C\I` (stereo unspecified) was tested, and the Injected dose/organ (Rattus norvegicus [1]) was 5.77%, the Injected dose/organ (Rattus norvegicus [2]) was 0.07% and the Injected dose/organ (Rattus norvegicus [3]) was 0.16%. It also gave an Injected dose/organ (Rattus norvegicus [4]) of 0.56%, an Injected dose/organ (Rattus norvegicus [5]) of 1.6% and an Injected dose/organ (Rattus norvegicus [6]) of 0.5%. For the same compound, the Injected dose/organ (Rattus norvegicus [7]) was 12.22%, the Injected dose/organ (Rattus norvegicus [8]) was 0.08% and the Injected dose/organ (Rattus norvegicus [9]) was 8%. It also gave an Injected dose/organ (Rattus norvegicus [10]) of 0.21%, an Injected dose/organ (Rattus norvegicus [11]) of 0.22% and an Injected dose/organ (Rattus norvegicus [12]) of 24.81%. For the same compound, the Injected dose/organ (Rattus norvegicus [13]) was 0.11%, the Injected dose/organ (Rattus norvegicus [14]) was 0.94% and the Dose/g (Rattus norvegicus [15]) was 0.03%. The Dose/g (Rattus norvegicus [16]) was 0.03%, the Dose/g (Rattus norvegicus [17]) was 0.05% and the Dose/g (Rattus norvegicus [18]) was 1.12%. For the same compound, the Dose/g (Rattus norvegicus [19]) was 0.82%, the Dose/g (Rattus norvegicus [20]) was 0.91% and the Dose/g (Rattus norvegicus [21]) was 0.69%. It also gave a Dose/g (Rattus norvegicus [22]) of 0.92%, a Dose/g (Rattus norvegicus [23]) of 3% and a Dose/g (Rattus norvegicus [24]) of 0.19%. It also gave a Dose/g (Rattus norvegicus [25]) of 0.11%, a Dose/g (Rattus norvegicus [26]) of 0.12% and a Dose/g (Rattus norvegicus [27]) of 0.33%. It also gave a Dose/g (Rattus norvegicus [28]) of 2.7%, a Dose/g (Rattus norvegicus [29]) of 0.04% and an Injected dose/organ (Rattus norvegicus [30]) of 0.4%. It also gave an Injected dose/organ (Rattus norvegicus [31]) of 12.13%.
